The target in this experiment is T1, mAChR M1 (UniProt P11229).
T1 sequence (P11229 1-460): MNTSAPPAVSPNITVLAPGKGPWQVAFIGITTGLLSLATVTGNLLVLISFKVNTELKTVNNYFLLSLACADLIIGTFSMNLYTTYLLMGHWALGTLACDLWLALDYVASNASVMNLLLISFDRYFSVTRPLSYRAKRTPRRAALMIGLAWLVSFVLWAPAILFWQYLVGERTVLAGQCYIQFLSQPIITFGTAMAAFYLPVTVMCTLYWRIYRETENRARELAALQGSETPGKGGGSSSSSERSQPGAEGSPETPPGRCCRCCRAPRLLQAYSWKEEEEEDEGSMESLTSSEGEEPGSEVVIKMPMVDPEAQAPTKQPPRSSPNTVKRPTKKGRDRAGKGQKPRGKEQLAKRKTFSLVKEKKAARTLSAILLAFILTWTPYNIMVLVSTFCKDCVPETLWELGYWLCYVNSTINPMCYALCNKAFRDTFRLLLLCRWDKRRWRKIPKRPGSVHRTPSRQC
As to the kind of experiment: mAChR M1 cell-based functional assay (calcium mobilization, potentiation of EC20 acetylcholine response). Particulars: for EC50: CHO-K1 cells expressing mAChR M1, increase in EC20 acetylcholine response, >10 μM estimated where no plateau in the curve. The procedure: Chinese hamster ovary (CHO-K1) cells stably expressing rat (r)M1 were purchased from the American Type Culture Collection and cultured according to their indicated protocol. […] To make stable rM2, hM2, rM3, hM4, and rM4 cell lines for use in calcium mobilization assays, these cells also were stably transfected with a chimeric G-protein (Gqi5) (provided by B. R. Conklin, University of California, San Francisco) using Lipofectamine 2000. rM1, hM1, rM3, hM3, rM5, and hM5 cells were grown in Ham's F-12 medium containing 10% heat-inactivated fetal bovine serum (FBS), 20 mM HEPES, and 50 μg/mL G418 sulfate. rM2-Gqi5, hM2-Gqi5, and hM4-Gqi5 cells were grown in the same medium also containing 500 μg/mL Hygromycin B. Stable rM4-Gqi5 cells were grown in DMEM containing 10% heat-inactivated FBS, 20 mM HEPES, 400 μg/mL G418 sulfate, and 500 μg/mL Hygromycin B.
For high throughput measurement of agonist-evoked increases in intracellular calcium, CHO-K1 cells stably expressing muscarinic receptors were plated in growth medium lacking G418 and hygromycin at 15,000 cells/20 μL/well in Greiner 384-well black-walled, tissue culture (TC)-treated, clear-bottom plates (VWR). Cells were incubated overnight at 37° C. and 5% CO2. […] Compound master plates were formatted in an 11 point CRC format (1:3 dilutions) in 100% DMSO with a starting concentration of 10 mM using the BRAVO liquid handler (Agilent). Test compound CRCs were then transferred to daughter plates ([…]) using the Echo acoustic plate reformatter (Labcyte, Sunnyvale, Calif.) and then diluted into assay buffer (40 μL) to a 2× stock using a Thermo Fisher Combi (Thermo Fisher Scientific, Waltham, Mass.).
Calcium flux was measured using the Functional Drug Screening System (FDSS) 6000 (Hamamatsu Corporation, Tokyo, Japan) as an increase in the fluorescent static ratio. Compounds were applied to cells (20 μL, 2×) using the automated system of the FDSS 6000 at 4 s into the 300 s protocol and the data were collected at 1 Hz. […] Agonist activity was analyzed as a concentration-dependent increase in calcium mobilization upon compound addition. Positive allosteric modulator activity was analyzed as a concentration-dependent increase in the EC20 acetylcholine response. Antagonist activity was analyzed as a concentration-dependent decrease in the EC80 acetylcholine response. Concentration-response curves were generated using a four-parameter logistical equation in XLfit curve fitting software (IDBS, Bridgewater, N.J.) for Excel (Microsoft, Redmond, Wash.) or Prism (GraphPad Software, Inc., San Diego, Calif.).
The calcium mobilization assay was also used to determine “efficacy”. In the context of the assays carried out for the data in Table II, “efficacy” (% ACh at 30 μM) is defined as the maximal response in the calcium flux as determined by the sigmoidal curve fit of the concentration response curve, or in the absence of an acceptable curve fit, the response recorded at 30 μM test compound, stated as a percentage of the response elicited by a concentration of Ach that induces approximately 80% of a maximal (i.e. saturating) ACh response.
Substituted benzylspiroindolin-2-one analogs were synthesized as described above. Activity (EC50 and Emax) was determined in the mAChR M1 cell-based functional assay as described above and the data are shown in Table III. The compound number corresponds to the compound numbers used in Tables I and II.

Read-outs that look alike come from different tables or passages of the source.

The source of these data is patent publication US9073935B2, “Substituted benzylspiroindolin-2-one analogs as positive allosteric modulators of the muscarinic acetylcholine receptor M1” (VANDERBILT UNIVERSITY, priority 2011, dated 2015).

In the case of `Cn1cc(-c2ccc(CN3C(=O)C4(CCN(CC5CCCCC5)C4)c4ccccc43)c(F)c2)cn1` (stereo not drawn) [Compound B61], the 50% effective concentration (EC50) is more than 10 µM. In addition, the Emax (% ACh maximum at 30 μM) is recorded as 36%.

With `Cn1cc(-c2ccc(CN3C(=O)C4(CCN(C5CCCOC5)C4)c4ccccc43)c(F)c2)cn1` (single isomer, unassigned) [Compound B35], the concentration for a half-maximal effect (EC50) is 3.9 µM. Also, under “% ACh maximum at 30 μM”, the Emax is reported as 57%.

As for `Cn1cc(-c2ccc(CN3C(=O)C4(CCCO4)c4ccccc43)cc2)cn1` (stereo not drawn) [Compound B56, 1′-(4-(1-methyl-1H-pyrazol-4-yl)benzyl)-4,5-dihydro-3H-spiro[furan-2,3′-indolin]-2′-one], the EC50 was 7.8 µM. Also, for the setting “% ACh maximum at 30 μM”, the Emax is recorded as 45%.

Consider `CN1CCC2(CC1)C(=O)N(Cc1c(F)cc(-c3ccc4c(c3)CC(=O)N4)cc1F)c1ccccc12` [Compound B78], for which the EC50 was 6.6 µM. Besides, the maximal effect (Emax) (% ACh maximum at 30 μM) stood at 38%.

For the compound `CCN1CCC2(C1)C(=O)N(Cc1ccc(-c3cnn(C)c3)cc1F)c1ccccc12` (stereo not drawn) [Compound B24], the EC50 is 3.2 µM. Further, the maximal effect (Emax) (% ACh maximum at 30 μM) is reported as 65%.

Consider `CCCn1cc(-c2ccc(CN3C(=O)C4(CCN(C5CCCC5)C4)c4ccccc43)c(F)c2)cn1` (stereo not drawn) [Compound B32], for which the EC50 was 3.8 µM. Also, for the setting “% ACh maximum at 30 μM”, the maximal effect (Emax) is recorded as 41%.

Consider `CC1CCC(N2CCC3(C2)C(=O)N(Cc2ccc(-c4cnn(C)c4)cc2F)c2ccccc23)CC1` (stereo not drawn) [Compound B52], for which the half-maximal effective concentration (EC50) is 6.7 µM. Further, the maximal effect (Emax) (% ACh maximum at 30 μM) amounted to 46%.

As to `Cn1cc(-c2ccc(CN3C(=O)C4(CCN(C5CCCC5)CC4)c4ccccc43)c(F)c2)cn1` [Compound B46], the EC50 was 5.5 µM. Also, the Emax (% ACh maximum at 30 μM) came out at 34%.

As for `CC(C)N1CCC2(C1)C(=O)N(Cc1ccc(-c3cnn(C)c3)cc1F)c1ccccc12` (stereo not drawn) [Compound B37], the 50% effective concentration (EC50) is 4.4 µM. The Emax (% ACh maximum at 30 μM) turned out to be 32%.

As for `Cn1cc(-c2ccc(CN3C(=O)C4(CCN(C5CCC5)CC4)c4ccccc43)c(F)c2)cn1` [Compound B66], the EC50 is more than 10 µM. For the same compound, the Emax (% ACh maximum at 30 μM) is 32%.

On to `CN1CCCC12C(=O)N(Cc1c(F)cc(-c3cccc4nn(C)cc34)cc1F)c1ccccc12` (stereo not drawn) [Compound B80], for which the EC50 is more than 10 µM. Under “% ACh maximum at 30 μM”, the maximum response (Emax) is given as less than 30%.

For `Cn1cc(-c2cc(F)c(CN3C(=O)C4(CCN(C5CCCC5)C4)c4ccccc43)cc2F)cn1` (stereo not drawn) [Compound B13], the 50% effective concentration (EC50) is 2.4 µM. Besides, the maximal response (Emax) (% ACh maximum at 30 μM) came out at 62%.

With `CC(C)CN1CCC2(C1)C(=O)N(Cc1ccc(-c3cnn(C)c3)cc1F)c1ccccc12` (stereo not drawn) [Compound B49], the EC50 was 6 µM. Further, under “% ACh maximum at 30 μM”, the maximal response (Emax) is recorded as 69%.

Regarding `Cn1cc(-c2ccc(CN3C(=O)C4(CCN(C5CCOCC5)C4)c4ccccc43)c(F)c2)cn1` (stereo not drawn) [Compound B10], the EC50 is 2.4 µM. The maximum response (Emax) (% ACh maximum at 30 μM) is given as 61%.

In the case of `Cn1cc(-c2ccc(CN3C(=O)C4(CCN(C5CCCC5)C4)c4ccccc43)cc2)cn1` (stereo not drawn) [Compound B1], the EC50 was 1.3 µM. For the same compound, the Emax (% ACh maximum at 30 μM) was determined as 43%.

As to `Cn1cc(-c2ccc(CN3C(=O)C4(CCN(C5CCCCC5)C4)c4ccccc43)c(F)c2)cn1` (single isomer, unassigned) [Compound B2], the concentration for a half-maximal effect (EC50) is 1.5 µM. Also, the Emax (% ACh maximum at 30 μM) stood at 73%.

Regarding `Cn1cc(-c2ccc(CN3C(=O)C4(CCN(C5CCOC5)CC4)c4ccccc43)c(F)c2)cn1` (stereo not drawn) [Compound B71], the 50% effective concentration (EC50) is more than 10 µM. Further, the maximal response (Emax) (% ACh maximum at 30 μM) is 36%.

For `CC(C)N1CCC(N2CCC3(C2)C(=O)N(Cc2ccc(-c4cnn(C)c4)cc2F)c2ccccc23)CC1` (stereo not drawn) [Compound B44], the concentration for a half-maximal effect (EC50) is 5 µM. For the same compound, where the note is “% ACh maximum at 30 μM”, the Emax is 49%.

For `CN1CCC2(C1)C(=O)N(Cc1ccc(-c3cnn(C)c3)cc1F)c1ccccc12` (racemic) [Compound B18, 1-(2-fluoro-4-(1-methyl-1H-pyrazol-4-yl)benzyl)-1′-methylspiro[indoline-3,3′-pyrrolidin]-2-one], the concentration giving a half-maximal response (EC50) is 2.9 µM. Also, for the setting “% ACh maximum at 30 μM”, the maximum response (Emax) is reported as 62%.

In the case of `Cn1cc(-c2ccc(CN3C(=O)C4(CCN(C5CCC5)C4)c4ccccc43)c(F)c2)cn1` (stereo not drawn) [Compound B14], the EC50 is 2.6 µM. Further, the maximal effect (Emax) (% ACh maximum at 30 μM) is on record as 58%.

Consider `CCn1cc(-c2ccc(CN3C(=O)C4(CCN(C5CCCC5)C4)c4ccccc43)c(F)c2)cn1` (stereo not drawn) [Compound B17], for which the concentration giving a half-maximal response (EC50) is 2.8 µM. In addition, the Emax (% ACh maximum at 30 μM) amounted to 45%.

For `Cn1cc(-c2ccc(CN3C(=O)C4(CCN(C5CCOC5)C4)c4ccccc43)c(F)c2)cn1` (stereo not drawn) [Compound B25], the concentration giving a half-maximal response (EC50) was 3.3 µM. Besides, the maximal effect (Emax) (% ACh maximum at 30 μM) is listed as 54%.

In the case of `Cn1cc(-c2ccc(CN3C(=O)C4(CCN(CC5CC5)C4)c4ccccc43)c(F)c2)cn1` (stereo not drawn) [Compound B11], the concentration for a half-maximal effect (EC50) is 2.4 µM. In addition, under “% ACh maximum at 30 μM”, the Emax came out at 60%.

Take `Cn1cc(-c2ccc(CN3C(=O)C4(CCN(c5ncccn5)C4)c4ccccc43)c(F)c2)cn1` (stereo not drawn) [Compound B7, 1-(2-fluoro-4-(1-methyl-1H-pyrazol-4-yl)benzyl)-1′-(pyrimidin-2-yl)spiro[indoline-3,3′-pyrrolidin]-2-one]: the EC50 is 1.9 µM. In addition, the Emax (% ACh maximum at 30 μM) is given as 63%.

Consider `CN1CCC2(CC1)C(=O)N(Cc1c(F)cc(-c3ccc4nn(C)cc4c3)cc1F)c1ccccc12` [Compound B77], for which the EC50 was more than 10 µM. In addition, the Emax (% ACh maximum at 30 μM) is given as 26%.

As for `Cn1cc(-c2ccc(CN3C(=O)C4(CCN(C(=O)c5ccccc5)C4)c4ccccc43)c(F)c2)cn1` (single isomer, unassigned) [Compound B45], the EC50 is 5.3 µM. For the same compound, the maximal response (Emax) (% ACh maximum at 30 μM) is listed as 38%.

As to `CN1CCC2(C1)C(=O)N(Cc1ccc(-c3cnn(C)c3)cc1F)c1ccccc12` (single isomer, unassigned) [Compound B16, 1-(2-fluoro-4-(1-methyl-1H-pyrazol-4-yl)benzyl)-1′-methylspiro[indoline-3,3′-pyrrolidin]-2-one], the half-maximal effective concentration (EC50) is 2.7 µM. Besides, under “% ACh maximum at 30 μM”, the Emax came to 46%.

`CN1CCC(N2CCC3(C2)C(=O)N(Cc2ccc(-c4cnn(C)c4)cc2F)c2ccccc23)CC1` (stereo not drawn) [Compound B27]: the half-maximal effective concentration (EC50) was 3.5 µM. Moreover, where the note is “% ACh maximum at 30 μM”, the Emax is on record as 63%.

With `Cn1cc(-c2ccc(CN3C(=O)C4(CCN(CC(F)F)C4)c4ccccc43)c(F)c2)cn1` (stereo not drawn) [Compound B26, 1′-(2,2-difluoroethyl)-1-(2-fluoro-4-(1-methyl-1H-pyrazol-4-yl)benzyl)spiro[indoline-3,3′-pyrrolidin]-2-one], the maximal effect (Emax) stood at 53% and the concentration giving a half-maximal response (EC50) is 3.4 µM.

As to `Cn1cc(-c2ccc(CN3C(=O)C4(CCN(C5CCCNC5)CC4)c4ccccc43)c(F)c2)cn1` (stereo not drawn) [Compound B43], the half-maximal effective concentration (EC50) is 5 µM. The maximal response (Emax) (% ACh maximum at 30 μM) is listed as 48%.

For `Cn1cc(-c2ccc(CN3C(=O)C4(CCN(C5CCCOC5)C4)c4ccccc43)c(F)c2)cn1` (single isomer, unassigned) [Compound B67], the half-maximal effective concentration (EC50) is more than 10 µM. Besides, the Emax (% ACh maximum at 30 μM) is listed as 44%.

In the case of `CN1CCC2(CC1)C(=O)N(Cc1ccc(-c3cnn(C)c3)cc1F)c1ccccc12` [Compound B36], the EC50 is 4 µM. Also, the maximum response (Emax) (% ACh maximum at 30 μM) was 48%.

On to `Cn1cc(-c2ccc(CN3C(=O)C4(CCN(CCF)C4)c4ccccc43)c(F)c2)cn1` (stereo not drawn) [Compound B23], for which the Emax worked out at 63% and the concentration giving a half-maximal response (EC50) was 3.2 µM.
